The values that follow come from publication PMC8744458 (Beilstein Journal of Organic Chemistry, 2022).

Test in data set [1]: not given
The source holds these as a separate data set.

Test in data set [2]: not given
The source holds these as a separate data set.

Data set [3] concerns the target T1, β-catenin (Homo sapiens, UniProt P35222).
T1 construct: expression and purification of full-length β-catenin; His tag with TEV site (inferred from the pET28a-TEV vector name and Ni-NTA purification); host or cells: E. coli BL21(DE3)
T1 sequence (P35222 1-781): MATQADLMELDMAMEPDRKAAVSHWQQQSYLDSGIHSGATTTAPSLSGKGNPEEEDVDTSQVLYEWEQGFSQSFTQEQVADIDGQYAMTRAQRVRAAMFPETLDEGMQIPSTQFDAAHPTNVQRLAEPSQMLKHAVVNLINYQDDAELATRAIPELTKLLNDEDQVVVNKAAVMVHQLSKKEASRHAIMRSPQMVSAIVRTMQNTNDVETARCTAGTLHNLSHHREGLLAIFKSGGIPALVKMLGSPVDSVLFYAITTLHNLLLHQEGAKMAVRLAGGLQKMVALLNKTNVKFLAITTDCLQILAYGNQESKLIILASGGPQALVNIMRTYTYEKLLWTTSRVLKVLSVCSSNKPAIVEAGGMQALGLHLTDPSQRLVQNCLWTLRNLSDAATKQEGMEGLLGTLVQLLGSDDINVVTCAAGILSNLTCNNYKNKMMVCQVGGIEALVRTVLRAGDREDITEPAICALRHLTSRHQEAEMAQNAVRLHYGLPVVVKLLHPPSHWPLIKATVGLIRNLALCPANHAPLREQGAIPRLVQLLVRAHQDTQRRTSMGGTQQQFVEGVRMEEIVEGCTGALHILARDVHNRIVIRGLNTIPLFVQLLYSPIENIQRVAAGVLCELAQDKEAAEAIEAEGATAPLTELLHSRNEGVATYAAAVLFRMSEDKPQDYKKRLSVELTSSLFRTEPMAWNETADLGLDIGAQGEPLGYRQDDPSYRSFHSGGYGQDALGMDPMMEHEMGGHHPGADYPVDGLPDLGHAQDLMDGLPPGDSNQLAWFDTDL
Nature of the data set: Competitive fluorescence polarisation assay. It counts as binding. The conditions noted are these: unlabelled peptide titrated against tracer peptide fStAx-3 (10 nM final), β-catenin 3 µM final; FP buffer 1× PBS with 0.05% Tween20, pH 7.4; 4 °C, 1 h; biological duplicate and technical triplicate. On the procedure: Figure S6: Direct titration curve of fluorescence polarisation assay of FITC-labelled AxWt (fAxWt) and FITC-labelled RCM-stapled peptide StAx-3 (fStAx-3). Dissociation constants were determined to be Kd […]
competitive fluorescence polarisation assay (see below).
Competitive fluorescence polarisation assay
A stock solution of the FITC-labelled peptide in DMSO (20 µM) was diluted to 40 nM in FP buffer (1× PBS with 0.05% Tween20, pH 7.4). A β-Catenin stock solution with a concentration of 6 µM was prepared in FP buffer. Stock solutions of non-labelled peptides (1 mM) in DMSO were serially diluted (2.5-fold) in FP buffer. […]
Fluorescence polarisation was measured using a Tecan Spark 10M with λex = 485/20 nm and […]. Each sample was measured as biological duplicate and technical triplicate. […]
The equation used for Kd determination of unlabeled peptides is shown below with r as anisotropy, r0 as anisotropy of the free peptide, rb as anisotropy of the β-Catenin:FITC-labelled tracer peptide, Kd2 as dissociation constant between the non-labelled ligand and the protein, [L]t as total non-labelled ligand concentration and [L]st as total FITC-labelled peptide concentration. Kd1 is the apparent Kd that was determined in direct fluorescence polari sation assays for the labelled-tracer peptide. […]
fluorescence polarisation assay). […]

A further data set addresses proteinase K (Parengyodontium album, UniProt P06873). Nature of the data set: Proteinase K stability assay. Format: in vitro ADME. The conditions noted are these: 0.5 mM peptide, 2.5 µg mL−1 proteinase K, Na2HPO4 buffer 100 mM pH 7.4 (with DMSO from stock), 25 °C, 120 min; samples at 0, 10, 20, 30, 60, 120 min; LC-MS at 280 nm. On the procedure:
Proteinase K stability assays
The assay was performed using a modified protocol.[11] A 10 mM peptide stock solution was prepared in a mixture of Na2HPO4 buffer (100 mM, pH 7.4) and DMSO (9:1). The peptide stock solution (25 µL) was diluted with more Na 2HPO4 buffer (450 µL) and thoroughly mixed.
Proteolytic digestion was started by addition of a solution of Proteinase K ( 50 µg mL−1, activity 36.9 mAnsonU mg−1) in Na2HPO4 buffer (25 µL) and incubated for 120 min at 25 °C (resulting assay concentrations 0.5 mM peptide and 2.5 µg mL−1 proteinase K). For LC-MS analysis, a 50 µL sample was diluted with 50 µL of methanol containing 0.1% TFA (v/v) and spun down at […]
Reaction monitoring via LC-MS
Figure S8: Reaction monitoring via LC-MS at λ = 280 nm. A) Linear Peptide P6, samples were taken […]
at t = 0, 10, 20, 30, 60 and 120 min. […]
fragment Ac-ENPEWILDKHVQ-OH eluting at exactly the same retention time than peptide P6 (see mass spectra below at reaction times 0 and 120 min). For fragment assignments, see mass spectra below. B) SMC stapled peptide P5, samples were taken at t = 0, 10, 20, 30, 60 and 120 min. Compared to linear […]

Data set [4] can be described thus: CD spectroscopy, calculated content of α-helix. It counts as physicochemical. The conditions noted are these: c = 100 µM in water, 20 °C, from MRE at 222 nm. On the procedure:
Figure 1 Analysis of the secondary structure by circular dichroism: CD spectra of both isomers of stapled peptide P5 (P5.1 and P5.2) and linear references (aAxWt, P6) (c = 100 µM) at 20 °C in water.
Table S1: Calculated contents of α-helix.
Peptide θ222 [mdeg] [θ]222 [deg cm2 dmol-1] a) MRE [deg cm2 dmol-1] b) α-Helix content [%]
a) [θ] = θ / (c * 10 * l) with c = 10-4 mol/L, l = 0.1 cm; b) MRE = [θ] / n; c) in brackets literature values for
FITC-labelled analogues, ref: Grossmann, T. N.; Yeh, J. T.-H.; Bowman, B. R.; Chu, Q.; Moellering, R.
For TFE titration experiments, peptide solutions in a mixture of TFE/H2O 4:1 were additionally
Reference peptides (linear and RCM stapled peptides)
Figure S2: CD spectra of reference peptides P6, aAxWt and aStAx-3, c = 100 µM in H2O. […]

Data set [5] addresses T2, β-catenin (Homo sapiens, UniProt P35222).
T2 chain: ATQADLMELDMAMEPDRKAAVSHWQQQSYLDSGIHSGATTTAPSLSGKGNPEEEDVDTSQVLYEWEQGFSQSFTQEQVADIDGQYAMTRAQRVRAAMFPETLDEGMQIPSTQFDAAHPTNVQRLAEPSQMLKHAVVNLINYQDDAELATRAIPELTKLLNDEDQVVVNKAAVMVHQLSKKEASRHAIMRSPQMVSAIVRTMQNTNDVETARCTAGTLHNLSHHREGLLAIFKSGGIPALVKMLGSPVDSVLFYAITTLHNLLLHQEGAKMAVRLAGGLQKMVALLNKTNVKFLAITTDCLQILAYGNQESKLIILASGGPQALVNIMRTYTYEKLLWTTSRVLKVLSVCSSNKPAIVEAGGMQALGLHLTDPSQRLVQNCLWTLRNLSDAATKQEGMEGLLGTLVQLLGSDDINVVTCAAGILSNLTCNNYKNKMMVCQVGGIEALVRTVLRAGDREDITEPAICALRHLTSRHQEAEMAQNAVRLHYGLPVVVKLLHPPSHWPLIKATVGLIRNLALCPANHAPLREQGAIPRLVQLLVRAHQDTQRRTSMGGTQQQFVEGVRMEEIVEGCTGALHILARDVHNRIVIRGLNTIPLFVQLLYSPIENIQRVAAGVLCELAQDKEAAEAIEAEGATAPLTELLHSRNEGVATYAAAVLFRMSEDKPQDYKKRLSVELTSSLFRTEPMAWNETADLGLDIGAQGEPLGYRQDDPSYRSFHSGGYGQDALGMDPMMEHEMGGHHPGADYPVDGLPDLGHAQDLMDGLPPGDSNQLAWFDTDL
Nature of the data set: direct fluorescence polarisation.

For data set [6], the target named is T2, β-catenin. Briefly: competitive fluorescence polarisation.

Where “and” joins values, the source holds several entries; their conditions need not be identical. Equal values may be shown once. Entries after “also recorded” stand apart in the source; their conditions may differ. Positions of bridges follow the written chain, without caps; N, C: chain ends. Non-standard residues stand in square brackets, D forms with d. Residues, ends and D or L forms follow the SMILES beside them. No end group written: not given here. *: point of attachment. FITC = O=C1OC2(c3ccc(O)cc3Oc3cc(O)ccc32)c2ccc(NC(=S)*)cc21; S5 = C=CCCC[C@](C)(N)C(=O)O

Sequence of proteinase K (P06873 106-384, species assumed): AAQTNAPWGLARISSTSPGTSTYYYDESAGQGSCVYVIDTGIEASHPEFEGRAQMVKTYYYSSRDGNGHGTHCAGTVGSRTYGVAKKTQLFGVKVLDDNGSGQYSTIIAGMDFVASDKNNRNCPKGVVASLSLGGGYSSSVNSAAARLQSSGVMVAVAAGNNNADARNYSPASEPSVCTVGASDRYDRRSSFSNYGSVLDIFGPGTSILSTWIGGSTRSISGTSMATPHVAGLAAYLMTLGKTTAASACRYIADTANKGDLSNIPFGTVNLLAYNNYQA

Regarding Ac-ENPEWILDKHVQRVM-NH2 [P6], the MRE (deg cm2 dmol-1) is -3960. Besides, the θ222 in data set [1] was -5.94 mdeg. The molecule further yielded a [θ]222 (deg cm2 dmol-1) in data set [2] of -59400. This molecule had a Kd at β-catenin [3] of 1240 ± 162 nM. Also, on proteinase K, the “Stability against proteinase K digestion (cleavage sites/fragments)” value was “degraded in three fragments; also recorded: cleaved within a period of 120 min to give three fragments”. The “α-Helix content calculated from CD spectra” value in data set [4] was 13%.
Take `CC[C@H](C)[C@@H]1NC(=O)[C@@H](NC(=O)[C@H](CCC(=O)O)NC(=O)[C@@H]2CCCN2C(=O)[C@H](CC(N)=O)NC(=O)[C@H](CCC(=O)O)NC(C)=O)Cc2c[nH]c3c(cccc23)-c2ccc(cc2)CCC(=O)NCCCC[C@@H](C(=O)N[C@@H](Cc2c[nH]cn2)C(=O)N[C@H](C(=O)N[C@@H](CCC(N)=O)C(=O)N[C@@H](CCCNC(=N)N)C(=O)N[C@H](C(=O)N[C@@H](CCSC)C(N)=O)C(C)C)C(C)C)NC(=O)[C@H](CC(=O)O)NC(=O)[C@H](CC(C)C)NC1=O` [P5]: the MRE (deg cm2 dmol-1) was -4690 and -6680. The θ222 in data set [1] was -7.04 mdeg and -10 mdeg. In addition, the [θ]222 (deg cm2 dmol-1) in data set [2] is -70400 and -100000. Further, the “Stability against proteinase K digestion (cleavage sites/fragments)” value on proteinase K is listed as “two of three cleaving sites are blocked; also recorded: allows access to only one of the three cleavage sites; also recorded: higher stability”.
For the molecule `CC[C@H](C)[C@@H]1NC(=O)[C@@](C)(NC(=O)[C@H](CCC(=O)O)NC(=O)[C@@H]2CCCN2C(=O)[C@H](CC(N)=O)NC(=O)[C@H](CCC(=O)O)NC(C)=O)CCCC=CCCC[C@@](C)(C(=O)N[C@@H](Cc2c[nH]cn2)C(=O)N[C@H](C(=O)N[C@@H](CCC(N)=O)C(=O)N[C@@H](CCCNC(=N)N)C(=O)N[C@H](C(=O)N[C@@H](CCSC)C(N)=O)C(C)C)C(C)C)NC(=O)[C@H](CC(=O)O)NC(=O)[C@H](CC(C)C)NC1=O` [aStAx-3, reference compound] (Ac-ENPE[S5]ILD[S5]HVQRVM-NH2; staple 5-9), the MRE (deg cm2 dmol-1) is -10800. The θ222 in data set [1] is -16.2 mdeg. This molecule also gave a [θ]222 (deg cm2 dmol-1) in data set [2] of -162000. Moreover, the Kd at β-catenin [3] was 49 ± 26 nM.

B1: fStAx-3 (FITC-labelled RCM-stapled axin CBD peptide) 467-481 (peptide)
chain: {FITC}-PESILDEHVQRVLRT
modifications: staple (positions not given here); not fully specified (residues 5, 9, bridges); also: all-hydrocarbon staple at 471/475 (positions 5, 9), stapling residues not named
Turning to B1, the equilibrium dissociation constant (Kd) in the data set with β-catenin [5] is 63 nM.
Molecule PESILDEHVQRVLRT [aAxWt (axin CBD peptide) 467-481] showed a Kd with β-catenin [6] of 1450 nM.
